# Measurements from PubChem BioAssay AID1996.
# Settings: buffer; pH 7.4; 200.0 µM
row,SMILES,solubility kinetic [µg/mL]
1,CN1CCN(NC(=O)c2ccc(Cl)s2)CC1,> 39
2,Cc1cc(C)c(NC(=O)CN2C(=O)NC3(CCc4ccccc43)C2=O)c(Cl)c1 (stereo not drawn),33.1
3,CCN(C(=O)COC(=O)CCC(=O)c1cccs1)c1ccccc1,> 51.8
4,O=C(CSc1nc(-c2ccccc2)ns1)N1CCOCC1,1
5,Cc1cccc(-n2c(C)c(C)c3c(N)ncnc32)c1,32.7
6,Cc1ccc(NC(=O)C2CCN(C(=O)c3ccco3)CC2)cc1,> 46.9
7,O=S1(=O)N=C(N2CCCC2)c2ccccc21,31.4
8,CCN(C(=O)COC(=O)c1ccc2c(c1)OCO2)c1ccccc1,> 49.1
9,Cn1cnnc1SCC(=O)c1ccc2c(c1)NC(=O)CO2,> 45.6
10,CCOC(=O)c1cnn(C)c1NC(=O)c1ccc(Cl)cc1Cl,> 51.3
11,O=C(COC(=O)COc1ccccc1)Nc1ncc(Cl)cc1Cl,47
12,CCN(CC)CC(=O)Nn1c(C)nc2c(ncn2-c2ccccc2)c1=O,> 53.2
13,Cc1cccnc1NC(=O)CNC(=O)COc1ccccc1,> 44.9
14,Cc1cc(C(F)(F)F)c2c(N)c(C(=O)NC3CC3)sc2n1,> 47.3
15,O=C(Nc1ccc2ccccc2c1)c1ccccc1F,< 0.6
16,Cc1ccc(S(=O)(=O)N2CCC[C@H]2C(=O)OCC(=O)Nc2ccc3c(c2)OCO3)cc1,34.3
17,CC(=O)NCCc1nc2ccccc2n1Cc1ccc(Cl)cc1,> 49.2
18,CC(=O)Oc1ccc2c(=O)oc(-c3ccccc3)nc2c1,3.1
19,COc1ccc(CCn2c(C)cc(C(=O)COC(=O)c3cnccn3)c2C)cc1,37.3
20,CC(C)OC(=O)c1ccc2nc3ccccc3nc2c1,1
21,CC(=O)Nc1nc2ccccc2n1Cc1ccc(Cl)cc1,7.8
22,O=C(CN1C(=O)c2ccccc2S1(=O)=O)Nc1cccc(S(=O)(=O)N2CCOCC2)c1,> 69.8
23,COc1ccc(NC(=O)CSc2ccc3c(c2)OCCO3)cc1S(N)(=O)=O,> 61.6
24,O=C(NC(=S)NCc1ccccc1)c1ccc(Br)cc1,< 0.4

row,SMILES,solubility kinetic [µg/mL]
1,O=C(Nc1ccsc1C(=O)O)c1cccc(Oc2ccccc2)c1,43.2
2,COC(=O)CCN(C(=O)c1ccc([N+](=O)[O-])cc1)c1ccccn1,> 49.4
3,CC1=NOC(=O)/C1=C/c1ccc2c(c1)OCO2,25.1
4,O=C(NCc1ccc2c(c1)OCO2)c1ccc(Cl)nc1,> 43.6
5,CN(Cc1nc2ccccc2c(=O)[nH]1)C(=O)c1cccc(S(=O)(=O)N2CCc3ccccc32)c1,36.5
6,C=CC[n+]1cccc(-c2cc3ccc(C)cc3[nH]2)c1.[Br-],> 49.4
7,Cn1c(N)c(C(=O)COC(=O)COc2cccc(Br)c2)c(=O)n(C)c1=O,11.3
8,CCCCNC(=O)N(C)c1nc2ccccc2s1,28.8
9,CCOP(=O)(c1ccc(N(C)C)cc1)C(O)c1ccc(OC)cc1 (stereo not drawn),48.8
10,CC(NC(=O)CN1CCN(c2ccccc2F)CC1)c1ccccc1 (stereo not drawn),46.3
11,N#Cc1ccc(CSc2nc(N)cc(N)n2)cc1,37.3
12,C[C@](N)(Cc1ccc(O)c(O)c1)C(=O)O,> 31.7
13,Cc1nc2c(c(=O)c3ccccc3n2C)c(=O)n1-c1ccccc1,46.2
14,COc1cc(OC)c(C(=O)O/N=C(\N)c2ccccc2)cc1OC,45.7
15,OC(COc1ccc(Cl)cc1)CN1CCN(c2ccccn2)CC1 (stereo not drawn),33.8
16,CC(C)CC1C(C#N)=C(N)OC2=C1C(=O)CC(c1ccccc1)C2 (stereo not drawn),37.6
17,Cc1ccc(C(=O)CCC(=O)NCc2ccccc2)cc1,16.9
18,COc1cccc(NC(=O)C2COc3ccccc3O2)c1 (stereo not drawn),> 42.8
19,Cc1cc(C)cc(CC2CC(=O)N(c3cc(C)ccc3C)C2=O)c1 (stereo not drawn),17.5
20,CC1(C)C(=O)Nc2ccccc2N1C(=O)COC(=O)c1ccc([N+](=O)[O-])o1,12.1
21,O=C(COC(=O)Cc1c[nH]c2ccccc12)Nc1cc(S(=O)(=O)N2CCOCC2)ccc1Cl,12.7
22,N#Cc1ccccc1OCC(=O)NCC(c1cccs1)N1CCOCC1 (stereo not drawn),> 55.7
23,CCCCNC(=O)NS(=O)(=O)c1ccc(C)cc1,> 40.6
24,CCOC(=O)CSc1nc(C)cc(C)c1C(N)=O,35.6

row,SMILES,solubility kinetic [µg/mL]
1,O=C(CN1C(=O)NC2(CCOc3ccccc32)C1=O)NCc1ccccc1 (stereo not drawn),> 54.8
2,COc1ccccc1CNC(=O)c1ccc(Cl)c(S(=O)(=O)N2CCCC2)c1,17.9
3,CN(c1ccccc1)c1nc(N)c([N+](=O)[O-])c(NC2CCCCC2)n1,< 0.1
4,FC(F)(F)c1cnc(COc2ccc(Cl)cc2Cl)c(Cl)c1,< 0.8
5,COc1cc(C)cc(CN2CC=C(c3ccccc3)CC2)c1O,12.8
6,COc1ccc(S(N)(=O)=O)cc1C(=O)OCC(=O)Nc1sccc1C#N,15.1
7,CCc1nc2c(c(=O)[nH]1)C(CC)(CC)Cc1ccccc1-2,0.7
8,CC1CCCC(C)N1C(=O)COC(=O)Cc1ccc(Cl)cc1 (stereo not drawn),> 48.6
9,CCCCSCCCNC(=S)Nc1ccccc1C,35.3
10,Cc1ccc(C(=O)OCC(=O)NC2CC2)s1,> 35.9
11,COc1cccc(NC(=O)CN2C(=O)C(=O)N(C3CCCC3)C2=O)c1,> 51.8
12,COc1ccc(O)c(CN2CCCC(C(=O)c3ccccc3SC)C2)c1 (stereo not drawn),17.7
13,Cc1ccc(C(=O)N(C)Cc2nc3ccccc3c(=O)[nH]2)cc1NC(=O)c1ccco1,> 62.5
14,Cl.NC(Cc1ccccc1)C(=O)N1CCCCC1 (stereo not drawn),> 40.3
15,Cc1ccc(O)c(NC(=O)c2noc(C(C)C)c2[N+](=O)[O-])c1,40.5
16,O=S(=O)(c1ccc(F)cc1)N1CC=C(c2ccccc2)CC1,2.6
17,C/C(CC(=O)Nc1ccccn1)=N\NC(=O)c1cnccn1,> 44.7
18,O=C(N/C(=C\c1ccco1)C(=O)N1CCCC1)c1ccccc1,41.6
19,CCOc1ccc(N2CC(C(=O)N3CCc4ccccc43)CC2=O)cc1 (stereo not drawn),4.5
20,Cc1cccc(N2C(=O)CN(Cc3ccccc3)C2=S)c1,10
21,CN1CCN(C(=O)C23CC4CC(C)(CC(C)(C4)C2)C3)CC1.Cl,47.8
22,CC1CC(NC(=O)/C=C/C(=O)O)CC(C)(C)C1 (stereo not drawn),> 35.9
23,COc1ccc(C(=O)C2CCCN(C(=O)C3=CCCC3)C2)cc1OC (stereo not drawn),> 51.5
24,Nc1ccccc1C(=O)NCc1ccc(F)cc1,> 36.6

row,SMILES,solubility kinetic [µg/mL]
1,c1ccc(CSc2nc3ccccc3[nH]2)cc1,2.1
2,Cc1occc1C(=O)NCc1nc(-c2ccc(Cl)cc2)no1,37.8
3,CCCN1C(=O)C2(OCCO2)c2cc(Cl)ccc21,> 40.2
4,CCOC(=O)c1ccccc1NC(=O)c1ccc2nc[nH]c2c1,11.3
5,CCCS(=O)(=O)N1CCCC(C(=O)NCCc2ccccc2)C1 (stereo not drawn),48.5
6,Nc1c(NC=O)c(=O)n(Cc2ccccc2)c(=O)n1Cc1ccccc1,52.1
7,OCCNCCCOc1cc(Cl)ccc1Cl,31.9
8,Cc1ccc(-c2cc(C(=O)NC3CCCCC3)no2)cc1,< 0.3
9,Cc1ccccc1C(=O)O/N=C(\N)c1ccccc1,34.3
10,N#Cc1ccccc1OCC(=O)OCC(=O)NC1CCCCC1,> 47.5
11,CCOC(=O)C1CCN(S(=O)(=O)c2ccccc2[N+](=O)[O-])CC1,44.1
12,COC(=O)c1cccnc1NC(=S)NC1CCCCC1,0.9
13,O=C(c1ccncc1)N1CCN(c2ccc3ccccc3n2)CC1,> 47.8
14,O=C(CCCCCCCCN1C(=O)c2ccccc2C1=O)N1CCOCC1,43.4
15,C=CCn1c(O)c(C(CC)=NCc2ccc3c(c2)OCO3)c(=O)[nH]c1=O,3
16,COc1nc(C)ccc1-c1noc(-c2cccnc2)n1,14.6
17,O=C(Nc1sc2c(c1C(=O)O)CCC2)C(=O)N1CCOCC1,> 48.7
18,COc1ccc(-c2cc(C(=O)NC3CC3)c3ccccc3n2)cc1,1.6
19,O=C1OCC2=C1C(c1ccc(F)cc1)CC(=O)N2c1ccc(F)cc1 (stereo not drawn),> 51.2
20,CCOC(=O)c1cccc(NC(=O)CC2Oc3ccccc3NC2=O)c1 (stereo not drawn),1.8
21,O=C1Nc2ccccc2C1(O)c1ccccc1O (stereo not drawn),> 36.2
22,O=C(/C=C/c1cccc([N+](=O)[O-])c1)Nc1ccccn1,0.7
23,O=C(/C=C/c1ccco1)c1cccnc1,23.8
24,COc1ccccc1C(=O)NC(C)c1cccc2ccccc12 (stereo not drawn),18.7

row,SMILES,solubility kinetic [µg/mL]
1,CCOC(=O)C(=CNc1ccc(Cl)cn1)C(=O)OCC,1.2
2,O=C(/C=C/c1ccccc1Cl)NC1CCCCC1,< 0.6
3,CN(c1cccc(NC(=O)c2ccc(C(C)(C)C)cc2)c1)S(C)(=O)=O,< 0.4
4,CCOC(=O)C(Cc1ccccc1)C(=O)NCc1cccnc1 (stereo not drawn),> 46.9
5,N#Cc1ccc(N=c2ssnc2Cl)cc1,4.2
6,O=C(NC1CCCc2ccccc21)c1cc(F)cc(F)c1 (stereo not drawn),2.6
7,CCC(OC(=O)c1nsc(Cl)c1Cl)C(=O)NCC1CCCO1 (stereo not drawn),52.8
8,O=C1CCC(C(=O)Nc2ccc(Cl)cc2)N1 (stereo not drawn),> 35.8
9,Cc1ccc2nc(-c3ccccn3)[nH]c2c1.Cl,> 36.9
10,O=C(NCCc1ccc(F)cc1)c1ccncc1,> 36.6
11,CC1(C(=O)NNC(=S)NCC2CCCO2)CC1(Cl)Cl (stereo not drawn),> 48.9
12,CC(OC(=O)C1CCC1)C(=O)Nc1cc(Cl)cc(Cl)c1 (stereo not drawn),2.4
13,CN(C)/C=N/c1nc(-c2ccc3ccccc3c2)cs1,16
14,CN1CCN(C=Nc2nc3ccccc3nc2N2CCCC2)CC1,> 48.7
15,O=C(CCn1c(=S)[nH]c2ccccc2c1=O)N1CCCCC1,9.1
16,O=C(/C=C(\O)c1ccccc1)C(=O)NNC(=O)c1ccccc1,> 46.5
17,Cc1cccc(CC2CC(=O)N(c3ccc([N+](=O)[O-])cc3)C2=O)c1 (stereo not drawn),21
18,O=C1C(=O)N(C/C=C/c2ccccc2)c2ccccc21,2.3
19,C=CCSc1nsc(NC(=O)Nc2ccc(F)cc2)n1,1.2
20,CCN1C(=O)C(C(=O)c2ccccc2)SC1=S (stereo not drawn),38.4
21,CC(C)CNC1CCS(=O)(=O)C1.Cl (stereo not drawn),> 34.2
22,Cc1cccc(NC(=O)CNC(=O)c2ccc3nc[nH]c3c2)c1C,> 48.4
